Laboratory results: patent US9777015B2, “Useful thiophene derivatives in the treatment of diabetes” (METABRAIN RESEARCH, priority 2012, dated 2017)
Read-outs that look alike come from different tables or passages of the source.

Tests used:
[1] = tested on: isolated perfused pancreases of N0STZ diabetic rats; experiment: Insulin secretion in response to glucose at isolated perfused pancreases of N0STZ diabetic rats; design: species or system rat; details: for Insulin secretion peak at G16.5 mM, Tested product: tested concentration 10 μM, glucose 16.5 mM, average +/- SEM; for restoring insulin secretion in response to glucose: isolated perfused pancreases of N0STZ diabetic rats
Method: The pancreas was taken on rats made to be diabetic by injection of Streptozotocin on the day of birth and anesthetized with Pentobarbital (Nembutal©: 45 mg/kg; intraperitoneal route). These rats have a specific deficiency of the insulin response to glucose, as observed in humans with diabetes of type II. The isolation and the perfusion of the pancreas were achieved according to a modification of the procedure described by Sussman et al.. The effect of the compounds or reference substances is tested for 35 minutes (from t=20 min to t=55 min) in Krebs buffer in the absence (GO) or in the presence of glucose at 2.8 mM (G2.8 mM), and then 20 minutes (from t=55 min to t=75 min) in the presence of glucose 16.5 mM. The concentration of insulin secreted into the medium is measured by an Elisa assay (ELISA Alpco Cat no. 80-INSRTH-E10). The results are expressed as an average+/−SEM (Standard Error of the Mean) of several experiments.

[2] = tested on: hepatocytes isolated from Wistar rat liver; experiment: Test of inhibition of hepatic production of glucose (isolated hepatocytes, 3 h or 20 h incubation); type: cell-based; details: for activity at 50 µM / activity at 100 µM: Rattus norvegicus, Hepatocyte; for activity at 50 µM: read-out: HGP % of ctrl @ 50 μM; for activity at 100 µM: read-out: HGP % of ctrl @ 100 μM; for inhibition of hepatic production of glucose: with two doses
Outline: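 Hepatocytes from 24 h-fasted Wistar rats were cultured overnight in glucose-free RPMI with hydrocortisone (7.10^−5M). Glucose production was run for 3 h in Krebs with lactate/pyruvate plus compounds (0.1% DMSO final), or after an added 20 h pretreatment during the RPMI culture. Supernatant glucose was measured by glucose oxidase and expressed per mg protein (Lowry).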

[3] = tested on: INS-1 cells; experiment: Stimulation test of insulin secretion by INS-1 cells; type: cell-based; details: Rattus norvegicus, 1 h incubation, 3.5 mM glucose; for activity at 10 µM: INS1, compound at 10 μM, read-out: INS-1 % of ctrl @ 10 μM; for activity at 50 µM: INS1, compound at 50 μM, read-out: INS-1 % of ctrl @ 50 μM
Method: The different compounds were tested on an INS-1 beta-pancreatic line in order to evaluate their capability of potentializing the insulin secretion in response to glucose. Very briefly, the cells are cultivated in a culture medium, RPMI 1640 with 10 mM glucose containing 1 mM of sodium pyruvate, 50 μM of 2-mercaptoethanol, 2 mM of glutamine, 10 mM of HEPES, 100 IU/mL of penicillin, 100 μg/mL of streptomycin and 10% of inactivated fetal calf serum, as described by Asfari et al.. For the insulin secretion test, the INS-1 cells are sown and cultivated in 96-well plates. After 3 days of cultivation at 37° C. in a humid atmosphere (95% air/5% CO2), the medium is removed and the cells are incubated for 16 h in a medium containing 5 mM of glucose and 1% of inactivated fetal calf serum. On the day of the test, the cells are washed with a Krebs buffer (pH 7.4) containing 0.1% of bovine albumin and then pre-incubated for 30 min at 37° C. in this same buffer containing 2.8 mM of glucose. Finally, the cells are again washed with Krebs buffer and then incubated for 1 h in the buffer of the secretion test (Krebs, pH 7.4 containing 0.1% of bovine albumin and 3.5 mM of glucose and molecules to be evaluated). At the end of the test, the cell supernatant is recovered in order to measure therein the secreted insulin, by means of an ELISA kit using a rat anti-insulin antibody (ELISA Alpco Cat no. 80-INSRTH-E10). Each condition is tested in triplicate. The 3.5 mM glucose, the 10^−7M GLP-1 and the Forskoline 10^−7/IBMX 10^−5M mixtures are used as positive controls of the test. A compound stimulates the secretion of insulin if this factor is greater than or equal to 130% of the control for a given glucose dose.

[4] = 3 h, hepatic glucose production, rat hepatocytes, 3 h incubation, compound at 50 μM
[5] = 3 h, hepatic glucose production, rat hepatocytes, 3 h incubation, compound at 100 μM
[6] = 20 h, hepatic glucose production, rat hepatocytes, 20 h incubation, compound at 50 μM
[7] = 20 h, hepatic glucose production, rat hepatocytes, 20 h incubation, compound at 100 μM

Compound | activity at 50 µM [2, 4] [%] | activity at 100 µM [2, 5] [%] | activity at 10 µM [3] [%] | activity at 50 µM [3] [%] | activity at 50 µM [2, 6] [%] | activity at 100 µM [2, 7] [%] | other results
O=C(O)Cc1cc(C(=O)c2ccco2)sc1-c1ccc(Cl)cc1 [compound 56, 2-(2-(4-chlorophenyl)-5-(furan-2-carbonyl)thiophen-3-yl)acetic acid] |  |  |  |  |  |  | Insulin secretion peak at G16.5 mM, Tested product [1]: 845 ± 133 μU/min.; HGP % of ctrl @ 50 μM ([2]; hepatic glucose production, rat hepatocytes, 3 h incubation, compound at 50 μM): 94 % of ctrl; HGP % of ctrl @ 100 μM ([2]; hepatic glucose production, rat hepatocytes, 3 h incubation, compound at 100 μM): 70 % of ctrl
COC(=O)Cc1cc(C(=O)c2ccco2)sc1-c1ccccc1 [compound 3, methyl 2-(5-(furan-2-carbonyl)-2-phenylthiophen-3-yl)acetate] | 82 | 74 | 152 | 318 |  |  | 
CCON=C(c1ccc(OC)cc1)c1cc(CC(=O)O)c(-c2ccc(Cl)cc2)s1 [compound 108, 2-(2-(4-chlorophenyl)-5-((ethoxyimino)(4-methoxyphenyl)methyl)thiophen-3-yl)acetic acid] | 88 | 26 | 135 |  |  |  | 
CC(C)OC(=O)Cc1cc(C(=O)c2ccco2)sc1-c1ccc(Cl)cc1F [compound 143, isopropyl 2-(2-(4-chloro-2-fluorophenyl)-5-(furan-2-carbonyl)thiophen-3-yl)acetate] | 89 | 72 | 127 | 233 |  |  | 
CCOC(=O)Cc1cc(C(=O)c2ccc(Cl)o2)sc1-c1ccc(Cl)cc1 [compound 176, ethyl 2-[5-(5-chlorofuran-2-carbonyl)-2-(4-chlorophenyl)-3-thienyl]acetate] | 76 | 36 | 144 | 246 |  |  | 
CCOC(=O)Cc1cc(C(=O)c2ccc(Cl)cc2OC)sc1-c1ccc(Cl)cc1 [compound 155, ethyl 2-[5-(4-chloro-2-methoxy-benzoyl)-2-(4-chlorophenyl)-3-thienyl]acetate] | 65 | 54 |  | 143 |  |  | 
O=C(O)Cc1cc(C(=O)c2ccco2)sc1-c1cccc(F)c1F [compound 136, 2-(2-(2,3-difluorophenyl)-5-(furan-2-carbonyl)thiophen-3-yl) acetic acid] |  |  | 120 | 158 | 64 | 43 | 
CCOC(=O)Cc1cc(C(=NOC)c2ccc(OC)cc2)sc1-c1ccc(Cl)cc1 [compound 106, ethyl 2-(2-(4-chlorophenyl)-5-((methoxyimino)(4-methoxyphenyl)methyl)thiophen-3-yl)acetate] |  |  | 148 | 151 | 74 | 45 | 
CCOC(=O)Cc1cc(C(=O)c2ccccc2)sc1-c1ccc(OC)cc1 [compound 35, ethyl 2-(5-benzoyl-2-(4-methoxy-phenyl)thiophen-3-yl)acetate] |  |  | 128 | 148 | 100 | 70 | 
COc1ccc(C(=O)c2cc(CC(=O)OC(C)(C)C)c(-c3ccc(Cl)cc3)s2)cc1 [compound 84, tert-butyl 2-(2-(4-chlorophenyl)-5-(4-methoxybenzoyl)thiophen-3-yl)acetate] |  |  | 139 | 153 | 85 | 40 | 
CCOC(=O)C(COC)c1cc(C(=O)c2ccc(OC)cc2)sc1-c1ccc(Cl)cc1 (stereo not shown) [compound 124, ethyl 2-(2-(4-chlorophenyl)-5-(4-methoxybenzoyl)thiophen-3-yl)-3-methoxypropanoate] |  |  | 177 | 169 | 92 | 60 | restoring insulin secretion in response to glucose [1]: strongest secretions
COc1ccc(S(=O)(=O)c2cc(CC(=O)O)c(-c3ccc(Cl)c(Cl)c3)s2)cc1 [compound 175, 2-[2-(3,4-dichlorophenyl)-5-(4-methoxyphenyl)sulfonyl-3-thienyl]acetic acid] | 51 | 20 | 106 | 145 |  |  | inhibition of hepatic production of glucose ([2]; 3 h incubation): strongest inhibitions
O=C(O)Cc1cc(C(=O)C2CCCCC2)sc1-c1ccccc1 [compound 52, 2-(5-(cyclohexanecarbonyl)-2-phenylthiophen-3-yl)acetic acid] | 61 | 44 | 127 | 140 |  |  | 
CCOC(=O)Cc1cc(C(=O)c2ccc(OC)cc2)sc1-c1ccc(Cl)c(Cl)c1 [compound 157, ethyl 2-[2-(3,4-dichlorophenyl)-5-(4-methoxybenzoyl)-3-thienyl]acetate] | 97 | 74 |  | 140 |  |  | Insulin secretion peak at G16.5 mM, Tested product [1]: 989 ± 86 μU/min.
CCOC(=O)Cc1cc(C(=O)c2ccc(OC)cc2)sc1-c1ccc(Cl)cc1 [compound 13, ethyl 2-(2-(4-chlorophenyl)-5-(4-methoxybenzoyl)thiophen-3-yl)acetate] | 84 | 69 | 155 |  | 58 | 35 | restoring insulin secretion in response to glucose [1]: strongest secretions; Insulin secretion peak at G16.5 mM, Tested product [1]: 1 489 μU/min.; inhibition of hepatic production of glucose ([2]; 20 h incubation): strongest inhibitions
CCOC(=O)Cc1cc(C(=O)C2CCCCC2)sc1-c1ccc(Cl)cc1 [compound 14, ethyl 2-(2-(4-chlorophenyl)-5-(cyclohexanecarbonyl)thiophen-3-yl)acetate] | 91 | 73 | 152 | 165 |  |  | 
